Data as given in publication PMC12648460, “Substitution of CH3 by CH2F in 2‐Methylerythritol Cyclodiphosphate Triggers Potent Inhibition of IspG with Concomitant Fluoride Ion Expulsion” (Chemistry (Weinheim an Der Bergstrasse, Germany), 2025).

What was measured:
Assay type in all cases: biochemical
IspG (GcpE) [1] = molecular target: T1, IspG (GcpE) (Escherichia coli, UniProt P62620); experiment: anaerobic NADPH consumption assay ([…] nm), […] min preincubation with reduction system; […]-NMR of fluoride release
T1 construct: active dimeric form
T1 sequence (P61949 2-176): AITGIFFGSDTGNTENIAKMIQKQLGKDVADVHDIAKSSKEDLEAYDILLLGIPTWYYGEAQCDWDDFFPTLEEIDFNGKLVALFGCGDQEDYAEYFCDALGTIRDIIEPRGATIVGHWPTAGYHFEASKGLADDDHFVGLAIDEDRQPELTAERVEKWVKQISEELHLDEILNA
T1 sequence (P28861 2-248, further chain): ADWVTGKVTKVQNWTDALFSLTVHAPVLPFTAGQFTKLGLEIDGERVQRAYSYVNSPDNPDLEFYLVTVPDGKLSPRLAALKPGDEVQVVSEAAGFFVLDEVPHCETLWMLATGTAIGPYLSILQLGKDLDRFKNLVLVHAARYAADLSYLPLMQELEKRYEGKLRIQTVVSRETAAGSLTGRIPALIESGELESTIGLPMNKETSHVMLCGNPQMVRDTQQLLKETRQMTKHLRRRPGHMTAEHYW
T1 sequence (P62620 whole entry): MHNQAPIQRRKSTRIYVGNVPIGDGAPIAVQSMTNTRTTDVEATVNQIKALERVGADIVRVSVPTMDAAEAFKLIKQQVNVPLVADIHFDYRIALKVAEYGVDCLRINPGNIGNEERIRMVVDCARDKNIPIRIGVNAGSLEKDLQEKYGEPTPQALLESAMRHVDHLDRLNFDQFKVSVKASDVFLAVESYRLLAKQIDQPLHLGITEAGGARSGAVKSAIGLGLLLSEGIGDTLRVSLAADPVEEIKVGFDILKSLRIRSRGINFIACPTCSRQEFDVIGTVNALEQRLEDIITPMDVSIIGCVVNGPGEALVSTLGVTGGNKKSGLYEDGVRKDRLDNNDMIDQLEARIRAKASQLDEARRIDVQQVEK

IspG (GcpE) [2] = molecular target: T1, IspG (GcpE); experiment: anaerobic NADPH consumption assay, preincubation with reduction system
IspG (GcpE) [3] = molecular target: T1, IspG (GcpE); experiment: anaerobic NADPH consumption assay of purified IspG with […] MEcPP

## O=P1(O)OC[C@@H](O)[C@@](CO)(CF)OP(=O)(O)O1 [compound 8, monofluoromethyl-D-erythritol cyclodiphosphate]
IspG (GcpE) [1]
  IC50: 10.4 ± 1 µM

## C=C[C@@]1(CO)OP(=O)(O)OP(=O)(O)OC[C@H]1O [VEcPP, 2-C-vinyl-D-erythritol cyclodiphosphate]
IspG (GcpE) [2]
  IC50: 19.5 ± 1.3 µM

## C[C@@]1(CO)OP(=O)(O)OP(=O)(O)OC[C@H]1O [compound 1, 2-C-methyl-D-erythritol 2,4-cyclodiphosphate]
IspG (GcpE) [3]
  anaerobic NADPH consumption assay of purified IspG with 250 μM MEcPP: ~ 200 nmol min−1 mg−1
